Values quoted from earlier work as cited in patent US11260068B2, “Long-circulating liposome modified with c(RGD-ACP-K)” (BEIJING GREATSUN BIO-PHARM. TECH. CO., LTD, priority 2017, dated 2022).
“Also recorded” adds a separate entry of the source. Starred links: 1 amine or outer side, 2 acyl side, 3 side chain; linkers in the order of their positions; H or OH if unused. Non-standard residues stand in square brackets, D forms with d. Residues, ends and D or L forms follow the SMILES beside them. X1 = O=C(C1CCC(N[*:1])C1)[*:2]

Biological target: T1, integrin αvβ3 on the surface of U87MG cells (Homo sapiens, UniProt P05106+P06756)
T1 construct: U87MG glioblastoma cells expressing integrin αvβ3; endogenous in cells; host or cells: U87MG glioblastoma cells
T1 sequence (P06756 31-889 limits assumed): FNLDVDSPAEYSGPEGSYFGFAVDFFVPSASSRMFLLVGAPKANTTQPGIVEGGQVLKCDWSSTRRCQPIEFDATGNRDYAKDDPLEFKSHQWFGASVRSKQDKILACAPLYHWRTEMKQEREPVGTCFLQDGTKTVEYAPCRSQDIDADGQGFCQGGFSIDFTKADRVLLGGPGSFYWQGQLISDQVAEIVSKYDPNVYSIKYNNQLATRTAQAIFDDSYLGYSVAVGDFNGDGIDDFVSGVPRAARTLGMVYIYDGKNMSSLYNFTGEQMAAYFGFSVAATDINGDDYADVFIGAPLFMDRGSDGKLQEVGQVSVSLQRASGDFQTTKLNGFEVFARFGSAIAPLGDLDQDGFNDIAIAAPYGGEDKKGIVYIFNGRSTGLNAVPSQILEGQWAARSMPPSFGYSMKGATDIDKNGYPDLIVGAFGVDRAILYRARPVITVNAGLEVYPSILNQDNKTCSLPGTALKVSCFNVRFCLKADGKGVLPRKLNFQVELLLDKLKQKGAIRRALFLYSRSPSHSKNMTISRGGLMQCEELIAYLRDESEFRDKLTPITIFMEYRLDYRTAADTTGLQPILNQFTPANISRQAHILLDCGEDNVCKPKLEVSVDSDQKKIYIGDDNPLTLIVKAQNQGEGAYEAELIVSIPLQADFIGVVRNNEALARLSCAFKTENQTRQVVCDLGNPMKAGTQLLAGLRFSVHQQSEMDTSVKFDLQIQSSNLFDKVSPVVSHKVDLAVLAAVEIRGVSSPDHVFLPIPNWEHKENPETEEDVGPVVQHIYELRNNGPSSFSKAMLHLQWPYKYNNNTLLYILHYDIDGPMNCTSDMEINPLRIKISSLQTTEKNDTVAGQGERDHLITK
T1 sequence (P06756 891-1048 partner limits assumed): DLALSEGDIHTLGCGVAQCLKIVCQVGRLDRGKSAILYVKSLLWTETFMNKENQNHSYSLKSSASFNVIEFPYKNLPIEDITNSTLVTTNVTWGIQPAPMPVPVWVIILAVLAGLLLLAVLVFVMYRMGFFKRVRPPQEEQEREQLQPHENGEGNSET
T1 sequence (P05106 27-788): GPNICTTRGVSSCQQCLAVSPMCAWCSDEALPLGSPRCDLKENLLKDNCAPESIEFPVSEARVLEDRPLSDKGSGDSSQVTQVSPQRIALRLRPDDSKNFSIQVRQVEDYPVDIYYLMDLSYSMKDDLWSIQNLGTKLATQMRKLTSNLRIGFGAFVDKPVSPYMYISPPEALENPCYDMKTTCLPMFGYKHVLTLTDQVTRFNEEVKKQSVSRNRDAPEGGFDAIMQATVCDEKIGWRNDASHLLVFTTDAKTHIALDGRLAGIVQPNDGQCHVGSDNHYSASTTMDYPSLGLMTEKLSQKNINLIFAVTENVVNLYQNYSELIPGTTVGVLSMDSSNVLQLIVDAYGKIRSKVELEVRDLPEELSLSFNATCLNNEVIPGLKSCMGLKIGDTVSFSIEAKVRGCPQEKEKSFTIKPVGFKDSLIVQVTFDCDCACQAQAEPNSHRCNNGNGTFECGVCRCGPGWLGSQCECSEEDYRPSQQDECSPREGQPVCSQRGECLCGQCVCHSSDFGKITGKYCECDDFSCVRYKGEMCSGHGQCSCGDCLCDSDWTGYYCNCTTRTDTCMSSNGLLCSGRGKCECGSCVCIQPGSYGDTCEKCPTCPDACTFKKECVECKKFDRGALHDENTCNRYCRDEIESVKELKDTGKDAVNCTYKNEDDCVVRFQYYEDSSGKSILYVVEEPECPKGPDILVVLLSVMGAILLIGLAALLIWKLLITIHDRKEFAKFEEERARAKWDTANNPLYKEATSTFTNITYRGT
Details: reference c(RGDyK)

Compound | binding to integrin αvβ3 on the surface of U87MG cells
N=C(N)NCCC[C@@H]1NC(=O)[C@H](CCCCN)NC(=O)C2CCC(C2)NC(=O)[C@H](CC(=O)O)NC(=O)CNC1=O (stereo partly drawn) [c(RGD-ACP-K), cyclo[RGD-(1S,3R)-3-aminocyclopentane-1-carboxylic acid]] (cyclo(RGD[X1]K)) | superior to that of the cyclic peptide c(RGDyK); also recorded: significantly higher than that of c(RGD-ACH-K)
cyclic [c(RGD-ACH-K), cyclic [RGD-(1S,3R)-3-aminocyclohexanecarboxylic acid]] | superior to that of the cyclic peptide c(RGDyK)
